Measurements as given in US5128331A, “Method for lowering plasma lipid levels or blood pressure” (priority 1988, dated 1992).
Entries after “also recorded” stand apart in the source; their conditions may differ. Where two headings read alike, the source gives them in different places.

Experiments:
Assay type in all cases: in vivo
mice of the OF1 strain = experiment: Hypolipidemic activity: plasma cholesterol and plasma triglycerides in mice fed compound in chow; conditions: for change in vivo at 180 mg/kg: Mus musculus, feed or water, 240 h
Description: With the goal of finding new drugs which might be hypolipidemic, the new diphosphonates described in this patent application were administered orally to mice. This rodent species has plasma lipid level relatively close to man (generally greater than 150 mg/dl). For example, in mice receiving a normal diet the plasma cholesterol and triglyceride levels are in the range of 100 mg/dl, whereas for rat the comparative values are close to 50 mg/dl.
In every screening experiment, 30 mice of the OF1 strain weighing 25 to 35 g were divided into 5 groups of 6 animals each. Four groups received the compounds to be tested, or the reference drugs, the fifth group served as control. Compounds were dissolved in diethyl ether, and solution was added to the pelleted food and the ether was evaporated.
All compounds were tested at the final concentration of 0.1% in animal chow, equivalent to a daily intake of about 180 mg/kg. This diet was fed for 10 days, then after an overnight fasting the animals were sacrified by decapitation under ether anesthesia. Blood samples were collected in EDTA containing tubes.
Plasma cholesterol and plasma triglycerides were measured by enzymatic methods (Ames kit No. 6376 and No. 6630).

rat paw oedema = experiment: Anti-inflammatory activity: kappa carrageenan rat paw oedema model; conditions: for Inhibition of rat right hind paw volume increase, % Change from control: 4 hours post oedema induction, test compounds 100 mg/kg, indomethacin 30 mg/kg by gavage 1 hour prior; for anti-inflammatory activity (in words): rat paw oedema, 4 hours
Description: The effect of four selected diphosphates was investigated on the inflammatory response to kappa carrageenan in the rat paw oedema model. Eight male rats were employed per group. Oedema was induced in the right hind paw of each animal by a single injection into the plantar aponeurosis of 0.1 ml of a 1% w/v of kappa carrageena solution dissolved in 0.9% NaCl. The test compounds (100 mg/kg) and reference drug (indomethacin 30 mg/kg) were administered by gavage 1 hour prior to induction of oedema by carrageanan injection.
The volume of the right paw was measured for each animal at 0, 1, 2.5 and 4 hours after carrageenan injection (only 4 hour values are reported.

[1] = system: spontaneously hypertensive rat (SHR); experiment: Oral hypotensive activity in spontaneously hypertensive rats (SHR); conditions: for Percent change in blood pressure: 2 hours post dose, Table 5
Description: The spontaneously hypertensive rat (SHR) is a well established animal model of human arterial hypertension.
In screening experiments various gem-diphosphonates were dissolved in Tween-80 and administered orally to SH rats. Blood pressure was monitored hourly using a tailcuff method.

[2] = mice, 0.1% in animal chow (about 180 mg/kg daily), 10 days, Table 3, given as change from control, read-out: Cholesterol (% control)
[3] = mice, 0.1% in animal chow (about 180 mg/kg daily), 10 days, Table 3, given as change from control, read-out: Triglycerides (% control)
[4] = read-out: Cholesterol (% control)
[5] = read-out: Triglycerides (% control)

| Structure (SMILES) | change in vivo at 180 mg/kg (mice of the OF1 strain; [2]) | change in vivo at 180 mg/kg (mice of the OF1 strain; [3]) | Inhibition of rat right hind paw volume increase, % Change from control (rat paw oedema) | anti-inflammatory activity (in words) (rat paw oedema) | change in vivo at 180 mg/kg (mice of the OF1 strain; [4]) | change in vivo at 180 mg/kg (mice of the OF1 strain; [5]) | hypocholesterolemic activity (in words) (mice of the OF1 strain; mice, 0.1% in chow, 10 days) | hypocholesterolemic potency (plasma cholesterol change) (mice of the OF1 strain; mice, 0.1% in chow, 10 days) | hypotriglyceridemia (in words) (mice of the OF1 strain; mice, 0.1% in chow, 10 days) | hypotensive potency compared with reference drugs (in words) [1] | Percent change in blood pressure [1] | decreased plasma triglycerides by (mice of the OF1 strain; mice, 0.1% in chow, 10 days) |
| --- | --- | --- | --- | --- | --- | --- | --- | --- | --- | --- | --- | --- |
| CC(C)(C)c1cc(CC(P(=O)(O)O)P(=O)(O)O)cc(C(C)(C)C)c1O [Compound 8, 2-(3,5-ditertiarybutyl-4-hydroxyphenyl)-ethylidene-1,1-diphosphonic acid] | -2% | 19% | -54.2 % Change from control | significant inhibitory activities; also recorded: anti-inflammatory |  |  |  |  |  |  |  |  |
| CCOP(=O)(OCC)C(=Cc1cc(C(C)(C)C)c(O)c(C(C)(C)C)c1)P(=O)(OCC)OCC [Compound 33, Tetraethyl 2-(3,5-ditertiarybutyl-4-hydroxyphenyl)-ethenylidene-1,1-diphosphonate] |  |  | -5.8 % Change from control |  | -40% | -21% | hypocholesterolemic | -40% | significant hypotriglyceridemia |  |  |  |
| CCCCOP(=O)(OCCCC)C(Cc1cc(C(C)(C)C)c(O)c(C(C)(C)C)c1)P(=O)(OCC)OCC (stereo not shown) [Compound 18] |  |  |  |  | -31% | 60% | hypocholesterolemic |  |  | as potent as the reference drugs | -41% |  |
| COc1ccc2c(c1)c(CC(=O)O)c(C)n2C(=O)c1ccc(Cl)cc1 [Indomethacin, reference compound] |  |  | -92.3 % Change from control | prevented completely the increase in paw volume |  |  |  |  |  |  |  |  |
| CCOP(=O)(OCC)C(Cc1cc(C(C)CC)c(O)c(C(C)CC)c1)P(=O)(OCC)OCC (stereo not shown) [Compound 3] |  |  |  |  | -19% | -46% | hypocholesterolemic |  | significant hypotriglyceridemia |  | -20% | more than 44% |
| CCCCOP(=O)(OCCCC)C(Cc1cc(C(C)(C)C)c(O)c(C(C)(C)C)c1)P(=O)(OCCCC)OCCCC [Compound 7, Tetrabutyl 2-(3,5-ditertiary-4-hydroxyphenyl)-ethylidene-1,1-diphosphonate] |  |  |  |  | -23% | -15% | hypocholesterolemic |  | significant hypotriglyceridemia | as potent as the reference drugs | -30% |  |
| CC(C)(C)c1cc(C=C(P(=O)(O)O)P(=O)(O)O)cc(C(C)(C)C)c1O [Compound 36] | -9% | -5% | -25.0 % Change from control | significant inhibitory activities |  |  |  |  |  |  |  |  |
| CCOP(=O)(OCC)C(Cc1cc(C(C)(C)C)c(O)c(C(C)(C)C)c1)P(=O)(OCC)OCC [Compound 4, Tetraethyl 2-(3,5-ditertiarybutyl-4-hydroxyphenyl)-ethylidene-1,1-diphosphonate] |  |  | +1.5 % Change from control |  | -12% | -1% | hypocholesterolemic |  |  | as potent as the reference drugs | -34% |  |
| CCOP(=O)(OCC)C(Sc1cc(C(C)(C)C)c(O)c(C(C)(C)C)c1)P(=O)(OCC)OCC [Compound 5, Tetraethyl 3,5-ditertiary-4-hydroxyphenylthio-methylenediphosphonate] |  |  |  |  | -22% | -24% | hypocholesterolemic |  | significant hypotriglyceridemia |  |  |  |
| COc1ccc([C@@H]2Sc3ccccc3N(CCN(C)C)C(=O)[C@@H]2OC(C)=O)cc1 [Diltiazem, reference compound] |  |  |  |  |  |  |  |  |  |  | -38% |  |
| CC(C)OP(=O)(OC(C)C)C(Cc1cc(C(C)(C)C)c(O)c(C(C)(C)C)c1)P(=O)(OC(C)C)OC(C)C [Compound 6] |  |  |  |  | -37% | -34% | hypocholesterolemic |  | significant hypotriglyceridemia | as potent as the reference drugs | -64% |  |
| CCOP(=O)(OCC)C(Cc1cc(C(C)(C)C)c(O)c(C(C)(C)C)c1)P(=O)(N(C)C)N(C)C (stereo not shown) [Compound 19, Diethyl 1-bis(dimethylamino)phosphinyl-2-(3,5-ditertiarybutyl-4-hydroxyphenyl)ethylphosphonate] |  |  |  |  | -6% | -44% |  |  |  |  |  | more than 44% |
| CCOP(=O)(OCC)C(=Cc1cc(OC)c(O)c(OC)c1)P(=O)(OCC)OCC [Compound 37] |  |  |  |  | -16% | -70% | hypocholesterolemic |  | significant hypotriglyceridemia |  |  | more than 44% |
